“And” between values parts separate entries of the source, which are not always exact repeats. Identical values can stand only once. Like-named read-outs stand apart in the source and are kept apart here.

Drawing on patent publication US9636418B2 (priority 2013, dated 2017), this text covers IC50, Nav1.4/Nav1.7 and Nav1.5/Nav1.7 for eight compounds.

Holding throughout (test): cell-based
Experiment [1] addresses T1, hNav1.7 (Homo sapiens, UniProt Q15858). The class given is cell-based. The following applies: PatchXpress; * = at high concentrations compound would wash off slowly or not at all; read-out: PX hNav1.7 Tonic IC50.
Experiment [2] addresses T2, hNav1.4 (Homo sapiens, UniProt P35499). The settings on record: for IC50: IonWorks Quattro, read-out: IC50 Nav1.4; for Nav1.4/Nav1.7: ratio of IonWorks Quattro IC50 values.
Experiment [3] deals with T1, hNav1.7. The settings on record: IonWorks Quattro; read-out: IC50 Nav1.7. In general terms: The patch-clamp technique gives a direct electrical read-out from membranes.
The target in experiment [4] is T3, hNav1.5 (Homo sapiens, UniProt Q14524). The settings on record: IonWorks Quattro; read-out: IC50 Nav1.5.
Experiment [5] deals with T3, hNav1.5. The settings on record: for IC50: PatchXpress, * = at high concentrations compound would wash off slowly or not at all, read-out: PX hNav1.5 Tonic IC50.
The target of the next experiment is hNav1.3 (Homo sapiens, UniProt Q9NY46). The following applies: IonWorks Quattro; read-out: IC50 Nav1.3.
For experiment [6], the target named is T2, hNav1.4. The settings on record: for IC50: PatchXpress, * = at high concentrations compound would wash off slowly or not at all, read-out: PX hNav1.4 Tonic IC50; for Nav1.4/Nav1.7: ratio of PX IC50 values.

Sequence of hNav1.3 (Q9NY46 whole entry): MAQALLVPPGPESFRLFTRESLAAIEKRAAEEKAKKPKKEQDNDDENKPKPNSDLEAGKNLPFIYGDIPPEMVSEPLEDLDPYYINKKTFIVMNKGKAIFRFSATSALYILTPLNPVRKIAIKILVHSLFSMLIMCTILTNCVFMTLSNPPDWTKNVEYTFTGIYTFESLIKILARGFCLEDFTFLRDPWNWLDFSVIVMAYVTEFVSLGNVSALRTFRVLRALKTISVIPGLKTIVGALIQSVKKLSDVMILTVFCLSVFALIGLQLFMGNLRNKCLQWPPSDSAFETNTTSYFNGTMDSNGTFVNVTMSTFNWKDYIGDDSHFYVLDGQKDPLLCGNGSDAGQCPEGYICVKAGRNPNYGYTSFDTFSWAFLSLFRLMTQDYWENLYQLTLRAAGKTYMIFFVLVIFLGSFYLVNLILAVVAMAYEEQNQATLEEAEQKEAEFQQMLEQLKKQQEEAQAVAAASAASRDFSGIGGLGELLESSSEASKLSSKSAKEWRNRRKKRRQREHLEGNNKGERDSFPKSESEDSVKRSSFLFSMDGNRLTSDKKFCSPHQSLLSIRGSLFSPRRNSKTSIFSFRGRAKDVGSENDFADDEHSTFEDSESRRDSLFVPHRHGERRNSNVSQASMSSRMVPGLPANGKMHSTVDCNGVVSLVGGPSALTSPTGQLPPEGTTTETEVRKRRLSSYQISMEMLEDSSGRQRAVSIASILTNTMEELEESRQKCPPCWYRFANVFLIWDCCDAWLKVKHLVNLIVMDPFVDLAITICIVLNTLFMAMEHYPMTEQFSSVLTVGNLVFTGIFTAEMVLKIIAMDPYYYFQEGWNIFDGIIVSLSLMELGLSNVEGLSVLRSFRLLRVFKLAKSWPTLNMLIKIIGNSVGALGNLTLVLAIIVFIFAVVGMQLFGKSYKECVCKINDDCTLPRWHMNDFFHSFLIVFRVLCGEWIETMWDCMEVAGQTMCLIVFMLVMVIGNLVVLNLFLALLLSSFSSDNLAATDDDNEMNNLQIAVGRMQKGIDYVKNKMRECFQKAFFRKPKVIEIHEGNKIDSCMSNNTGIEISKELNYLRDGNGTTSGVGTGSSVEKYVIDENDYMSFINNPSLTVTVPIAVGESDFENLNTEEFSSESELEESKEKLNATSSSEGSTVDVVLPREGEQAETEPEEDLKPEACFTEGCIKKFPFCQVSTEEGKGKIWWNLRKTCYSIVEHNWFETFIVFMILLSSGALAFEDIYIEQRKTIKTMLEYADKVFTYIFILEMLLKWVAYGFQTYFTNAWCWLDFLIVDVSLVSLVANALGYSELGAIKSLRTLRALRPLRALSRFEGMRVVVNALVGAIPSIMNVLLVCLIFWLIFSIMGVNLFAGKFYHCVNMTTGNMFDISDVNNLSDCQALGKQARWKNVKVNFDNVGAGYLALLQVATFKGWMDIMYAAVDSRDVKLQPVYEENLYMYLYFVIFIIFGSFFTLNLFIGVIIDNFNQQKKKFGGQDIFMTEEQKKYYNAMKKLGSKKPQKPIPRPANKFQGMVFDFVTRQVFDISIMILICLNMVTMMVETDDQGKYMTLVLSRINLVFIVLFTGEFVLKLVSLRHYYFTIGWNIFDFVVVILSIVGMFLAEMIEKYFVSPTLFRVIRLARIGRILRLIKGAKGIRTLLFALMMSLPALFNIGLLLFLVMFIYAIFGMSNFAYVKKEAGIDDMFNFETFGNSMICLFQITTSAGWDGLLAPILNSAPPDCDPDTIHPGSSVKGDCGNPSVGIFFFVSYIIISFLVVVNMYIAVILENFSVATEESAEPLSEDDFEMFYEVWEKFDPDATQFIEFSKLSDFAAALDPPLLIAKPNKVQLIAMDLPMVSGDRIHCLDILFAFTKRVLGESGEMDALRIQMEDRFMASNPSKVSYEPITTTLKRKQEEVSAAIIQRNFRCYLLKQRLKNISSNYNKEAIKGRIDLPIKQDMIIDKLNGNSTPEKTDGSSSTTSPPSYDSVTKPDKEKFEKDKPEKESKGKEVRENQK
T1 sequence (Q15858 whole entry): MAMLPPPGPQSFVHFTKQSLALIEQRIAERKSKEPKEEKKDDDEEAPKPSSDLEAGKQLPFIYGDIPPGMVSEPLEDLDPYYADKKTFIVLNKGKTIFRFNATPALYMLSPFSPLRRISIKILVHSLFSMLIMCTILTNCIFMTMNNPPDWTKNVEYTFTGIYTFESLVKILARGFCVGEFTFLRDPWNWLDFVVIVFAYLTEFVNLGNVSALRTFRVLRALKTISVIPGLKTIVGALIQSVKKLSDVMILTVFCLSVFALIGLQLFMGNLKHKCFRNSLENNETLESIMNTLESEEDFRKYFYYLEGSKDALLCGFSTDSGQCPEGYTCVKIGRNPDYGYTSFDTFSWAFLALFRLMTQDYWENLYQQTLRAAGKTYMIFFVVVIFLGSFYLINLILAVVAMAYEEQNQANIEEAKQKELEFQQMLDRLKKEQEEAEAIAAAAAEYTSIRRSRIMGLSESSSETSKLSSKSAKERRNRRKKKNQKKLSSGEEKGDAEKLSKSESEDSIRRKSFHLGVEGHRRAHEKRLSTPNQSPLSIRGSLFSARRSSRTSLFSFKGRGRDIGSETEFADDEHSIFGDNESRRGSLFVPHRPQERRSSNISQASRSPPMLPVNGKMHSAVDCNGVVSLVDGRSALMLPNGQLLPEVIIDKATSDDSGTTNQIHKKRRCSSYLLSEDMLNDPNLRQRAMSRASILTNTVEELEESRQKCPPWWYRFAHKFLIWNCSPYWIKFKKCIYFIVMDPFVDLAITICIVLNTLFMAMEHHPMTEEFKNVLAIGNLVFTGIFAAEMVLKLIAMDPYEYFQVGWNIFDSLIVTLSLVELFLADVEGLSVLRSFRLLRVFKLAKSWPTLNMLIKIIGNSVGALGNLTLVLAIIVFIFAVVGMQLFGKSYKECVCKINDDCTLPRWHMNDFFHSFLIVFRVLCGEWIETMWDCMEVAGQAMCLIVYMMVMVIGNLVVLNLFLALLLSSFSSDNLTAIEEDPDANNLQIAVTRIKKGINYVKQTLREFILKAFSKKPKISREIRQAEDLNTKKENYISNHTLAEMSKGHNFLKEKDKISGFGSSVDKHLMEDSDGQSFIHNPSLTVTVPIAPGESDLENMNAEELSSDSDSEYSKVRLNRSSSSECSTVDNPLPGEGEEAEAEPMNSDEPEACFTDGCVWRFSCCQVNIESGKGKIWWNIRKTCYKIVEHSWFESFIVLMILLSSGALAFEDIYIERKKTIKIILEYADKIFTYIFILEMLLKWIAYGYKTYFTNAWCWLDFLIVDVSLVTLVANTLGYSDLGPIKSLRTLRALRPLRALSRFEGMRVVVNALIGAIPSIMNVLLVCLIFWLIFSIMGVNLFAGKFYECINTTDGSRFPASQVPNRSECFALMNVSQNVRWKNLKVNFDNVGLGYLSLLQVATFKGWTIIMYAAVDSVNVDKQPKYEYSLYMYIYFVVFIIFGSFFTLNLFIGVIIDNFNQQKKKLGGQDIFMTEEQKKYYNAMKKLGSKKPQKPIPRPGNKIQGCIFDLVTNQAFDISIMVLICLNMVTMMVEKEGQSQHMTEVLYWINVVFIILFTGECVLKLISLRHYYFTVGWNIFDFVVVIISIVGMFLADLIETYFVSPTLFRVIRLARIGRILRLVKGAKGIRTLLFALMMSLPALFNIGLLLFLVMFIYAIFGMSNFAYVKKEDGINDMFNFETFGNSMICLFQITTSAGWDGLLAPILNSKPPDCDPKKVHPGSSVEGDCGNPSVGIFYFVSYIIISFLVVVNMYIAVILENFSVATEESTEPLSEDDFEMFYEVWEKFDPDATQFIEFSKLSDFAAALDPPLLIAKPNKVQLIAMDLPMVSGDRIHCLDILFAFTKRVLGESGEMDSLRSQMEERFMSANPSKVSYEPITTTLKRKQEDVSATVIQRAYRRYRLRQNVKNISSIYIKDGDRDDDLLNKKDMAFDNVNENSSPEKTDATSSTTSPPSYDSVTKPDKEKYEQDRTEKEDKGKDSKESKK

For `CC[C@H](C)[C@H](NC(=O)[C@@H](NC(=O)[C@H](CCCCN)NC(=O)[C@H](CCCNC(=N)N)NC(=O)[C@@H]1CSSC[C@@H]2NC(=O)[C@H](C)NC(=O)[C@H](CCCNC(=N)N)NC(=O)[C@H](CCCCN)NC(=O)[C@H](CO)NC(=O)[C@H](CC(=O)O)NC(=O)[C@@H]3CSSC[C@H](NC(=O)[C@H](CCC(=O)O)NC(=O)[C@H](CC(C)C)NC(=O)CNC(=O)[C@H](CCC(=O)O)NC(=O)[C@H](CSSC[C@H](NC(=O)[C@@H](N)Cc4ccc(O)cc4)C(=O)N[C@@H](CCC(N)=O)C(=O)N[C@@H](CCCCN)C(=O)N[C@@H](Cc4c[nH]c5ccccc45)C(=O)N[C@@H](CCSC)C(=O)N[C@@H](Cc4c[nH]c5ccccc45)C(=O)N[C@@H]([C@@H](C)O)C(=O)N3)NC2=O)C(=O)N[C@@H](CCCCN)C(=O)N[C@@H](CC(C)C)C(=O)N[C@@H](Cc2c[nH]c3ccccc23)C(=O)N1)[C@@H](C)CC)C(N)=O` [compound 63], the IC50 at hNav1.7 [1] was 7 nM; on hNav1.4 [2], greater than 5000 nM; on hNav1.7 [3], 360 nM; on hNav1.5 [4], 9.8 µM; on hNav1.5 [5], 9.33 µM; at hNav1.3 it was greater than 5000 nM. Also, the Nav1.4/Nav1.7 at hNav1.4 [2] was 14.
Regarding `CC[C@H](C)[C@H](NC(=O)[C@@H](NC(=O)[C@H](CCCCN)NC(=O)[C@H](CCCNC(=N)N)NC(=O)[C@@H]1CSSC[C@@H]2NC(=O)[C@H](C)NC(=O)[C@H](CCCNC(=N)N)NC(=O)[C@H](CCCCN)NC(=O)[C@H](CO)NC(=O)[C@H](CC(=O)O)NC(=O)[C@@H]3CSSC[C@H](NC(=O)[C@H](CC(=O)O)NC(=O)[C@H](CC(C)C)NC(=O)CNC(=O)[C@H](CCC(=O)O)NC(=O)[C@H](CSSC[C@H](NC(=O)[C@@H](N)Cc4ccc(O)cc4)C(=O)N[C@@H](CCC(N)=O)C(=O)N[C@@H](CCCCN)C(=O)N[C@@H](Cc4c[nH]c5ccccc45)C(=O)N[C@@H](CCSC)C(=O)N[C@@H](Cc4c[nH]c5ccccc45)C(=O)N[C@@H]([C@@H](C)O)C(=O)N3)NC2=O)C(=O)N[C@@H](CCCCN)C(=O)N[C@@H](CC(C)C)C(=O)N[C@@H](Cc2c[nH]c3ccccc23)C(=O)N1)[C@@H](C)CC)C(N)=O` [compound 115], the IC50 on hNav1.7 [1] was 749 nM; on hNav1.4 [2], greater than 5000 nM; on hNav1.7 [3], 90 nM; at hNav1.5 [4], 11.1 µM; at hNav1.4 [6] it was 7600 nM; on hNav1.5 [5], 3.2 µM. In addition, on hNav1.3, the IC50 was greater than 5000 nM. Besides, the Nav1.4/Nav1.7 stood at 53 at hNav1.4 [2] and 10 at hNav1.4 [6]. Also, on hNav1.5 [5] (ratio of PX IC50 values), the Nav1.5/Nav1.7 came to 4.
With `CC[C@H](C)[C@H](NC(=O)[C@@H](NC(=O)[C@H](CCCCN)NC(=O)[C@H](CCCNC(=N)N)NC(=O)[C@@H]1CSSC[C@@H]2NC(=O)[C@H](C)NC(=O)[C@H](CCCNC(=N)N)NC(=O)[C@H](CCCCN)NC(=O)[C@H](CO)NC(=O)[C@H](CC(=O)O)NC(=O)[C@@H]3CSSC[C@H](NC(=O)CNC(=O)[C@H](CC(C)C)NC(=O)CNC(=O)[C@H](CCC(=O)O)NC(=O)[C@H](CSSC[C@H](NC(=O)[C@@H](N)Cc4ccc(O)cc4)C(=O)N[C@@H](CCC(N)=O)C(=O)N[C@@H](CCCCN)C(=O)N[C@@H](Cc4c[nH]c5ccccc45)C(=O)N[C@@H](CCSC)C(=O)N[C@@H](Cc4c[nH]c5ccccc45)C(=O)N[C@@H]([C@@H](C)O)C(=O)N3)NC2=O)C(=O)N[C@@H](CCCCN)C(=O)N[C@@H](CC(C)C)C(=O)N[C@@H](Cc2c[nH]c3ccccc23)C(=O)N1)[C@@H](C)CC)C(N)=O` [compound 121], the IC50 on hNav1.7 [1] amounted to 7.8 nM; on hNav1.4 [2], 1900 nM; on hNav1.7 [3], 60 nM; at hNav1.5 [4], 9.8 µM; at hNav1.4 [6], 197 nM; on hNav1.5 [5] it was 14.1 µM. Further, the IC50 on hNav1.3 was 980 nM. Further, the Nav1.4/Nav1.7 is listed as 29 at hNav1.4 [2] and 25 on hNav1.4 [6].
As to `CC[C@H](C)[C@H](NC(=O)[C@@H](NC(=O)[C@H](CCCCN)NC(=O)[C@H](CCCNC(=N)N)NC(=O)[C@@H]1CSSC[C@@H]2NC(=O)[C@H](C)NC(=O)[C@H](CCCNC(=N)N)NC(=O)[C@H](CCCCN)NC(=O)[C@H](CO)NC(=O)[C@H](CC(=O)O)NC(=O)[C@@H]3CSSC[C@H](NC(=O)[C@H](Cc4ccc(O)cc4)NC(=O)[C@H](CC(C)C)NC(=O)CNC(=O)[C@H](CCC(=O)O)NC(=O)[C@H](CSSC[C@H](NC(=O)[C@@H](N)Cc4ccc(O)cc4)C(=O)N[C@@H](CCC(N)=O)C(=O)N[C@@H](CCCCN)C(=O)N[C@@H](Cc4c[nH]c5ccccc45)C(=O)N[C@@H](CCSC)C(=O)N[C@@H](Cc4c[nH]c5ccccc45)C(=O)N[C@@H]([C@@H](C)O)C(=O)N3)NC2=O)C(=O)N[C@@H](CCCCN)C(=O)N[C@@H](CC(C)C)C(=O)N[C@@H](Cc2c[nH]c3ccccc23)C(=O)N1)[C@@H](C)CC)C(N)=O` [compound 124], the IC50 at hNav1.7 [1] was 5.9 nM; at hNav1.4 [2] it was 4000 nM; at hNav1.7 [3] it was 90 nM; on hNav1.5 [4], 10.8 µM; on hNav1.4 [6], 1570 nM; on hNav1.5 [5] it was greater than 10 µM. Besides, the IC50 at hNav1.3 is greater than 5000 nM. Further, the Nav1.4/Nav1.7 at hNav1.4 [2] is recorded as 43.
With `CCCC[C@@H]1NC(=O)[C@H](Cc2c[nH]c3ccccc23)NC(=O)[C@H](CCCCN)NC(=O)[C@H](CCC(N)=O)NC(=O)[C@@H](NC(=O)[C@@H](N)Cc2ccc(O)cc2)CSSC[C@@H]2NC(=O)[C@@H]3CSSC[C@@H](C(=O)N[C@@H](CCCNC(=N)N)C(=O)N[C@@H](CCCCN)C(=O)N[C@H](C(=O)N[C@H](C(N)=O)[C@@H](C)CC)[C@@H](C)CC)NC(=O)[C@H](Cc4c[nH]c5ccccc45)NC(=O)[C@H](CC(C)C)NC(=O)[C@H](CCCCN)NC(=O)[C@H](CSSC[C@H](NC(=O)[C@H]([C@@H](C)O)NC(=O)[C@H](Cc4c[nH]c5ccccc45)NC1=O)C(=O)N[C@@H](CC(=O)O)C(=O)N[C@@H](CO)C(=O)N[C@@H](CCCCN)C(=O)N[C@@H](CCCNC(=N)N)C(=O)N[C@@H](C)C(=O)N3)NC(=O)[C@H](CCCNC(=N)N)NC(=O)[C@H](CC(C)C)NC(=O)CNC(=O)[C@H](CCC(=O)O)NC2=O` [compound 272], the IC50 at hNav1.7 [1] was 0.586 nM; on hNav1.4 [2], greater than 5000 nM; at hNav1.7 [3] it was greater than 5000 nM; on hNav1.5 [4] it was greater than 5 µM; on hNav1.3 it was greater than 5000 nM.
For the compound `CCCC[C@@H]1NC(=O)[C@H](Cc2c[nH]c3ccccc23)NC(=O)[C@H](CCCCN)NC(=O)[C@H](CCC(N)=O)NC(=O)[C@@H](NC(=O)[C@@H](N)Cc2ccc(O)cc2)CSSC[C@@H]2NC(=O)[C@@H]3CSSC[C@@H](C(=O)N[C@@H](CCCNC(=N)N)C(=O)N[C@@H](CCCCN)C(=O)N[C@H](C(=O)N[C@H](C(N)=O)[C@@H](C)CC)[C@@H](C)CC)NC(=O)[C@H](Cc4c[nH]c5ccccc45)NC(=O)[C@H](CC(C)C)NC(=O)[C@H](CCCCN)NC(=O)[C@H](CSSC[C@H](NC(=O)[C@H]([C@@H](C)O)NC(=O)[C@H](Cc4c[nH]c5ccccc45)NC1=O)C(=O)N[C@@H](CC(=O)O)C(=O)N[C@@H](CO)C(=O)N[C@@H](CCCCN)C(=O)N[C@@H](CCCNC(=N)N)C(=O)N[C@@H](C)C(=O)N3)NC(=O)[C@H](CCC(=O)O)NC(=O)[C@H](CC(C)C)NC(=O)CNC(=O)[C@H](CCC(=O)O)NC2=O` [compound 273], the IC50 is greater than 5000 nM on hNav1.4 [2], 190 nM at hNav1.7 [3], greater than 5 µM at hNav1.5 [4] and 4100 nM at hNav1.3.
`CC[C@H](C)[C@H](NC(=O)[C@H](Cc1ccc(O)cc1)NC(=O)[C@H](CCCCN)NC(=O)[C@H](CCCNC(=N)N)NC(=O)[C@@H]1CSSC[C@@H]2NC(=O)[C@H](C)NC(=O)[C@H](CCCNC(=N)N)NC(=O)[C@H](CCCCN)NC(=O)[C@H](CO)NC(=O)[C@H](CC(=O)O)NC(=O)[C@@H]3CSSC[C@H](NC(=O)[C@H](CCCNC(=N)N)NC(=O)[C@H](CC(C)C)NC(=O)CNC(=O)[C@H](CCC(=O)O)NC(=O)[C@H](CSSC[C@H](NC(=O)[C@@H](N)CCC(=O)O)C(=O)N[C@@H](CCC(N)=O)C(=O)N[C@@H](CCCCN)C(=O)N[C@@H](Cc4c[nH]c5ccccc45)C(=O)N[C@@H](CCSC)C(=O)N[C@@H](Cc4c[nH]c5ccccc45)C(=O)N[C@@H]([C@@H](C)O)C(=O)N3)NC2=O)C(=O)N[C@@H](CCCCN)C(=O)N[C@@H](CC(C)C)C(=O)N[C@@H](Cc2c[nH]c3ccccc23)C(=O)N1)C(N)=O` [compound 278]: the IC50 is 700 nM on hNav1.4 [2], 46 nM at hNav1.7 [3], greater than 5 µM on hNav1.5 [4] and 300 nM on hNav1.3. For the same compound, at hNav1.4 [2], the Nav1.4/Nav1.7 worked out at 16.
As to `CC[C@H](C)[C@H](NC(=O)[C@@H](NC(=O)[C@H](CCCCN)NC(=O)[C@H](CCCNC(=N)N)NC(=O)[C@@H]1CSSC[C@@H]2NC(=O)[C@H](C)NC(=O)[C@H](CCCNC(=N)N)NC(=O)[C@H](CCCCN)NC(=O)[C@H](CO)NC(=O)[C@H](CC(=O)O)NC(=O)[C@@H]3CSSC[C@H](NC(=O)[C@H](CCCNC(=N)N)NC(=O)[C@H](CC(C)C)NC(=O)CNC(=O)[C@H](CCC(=O)O)NC(=O)[C@H](CSSC[C@H](NC(=O)[C@@H](N)CCC(=O)O)C(=O)N[C@@H](CCC(N)=O)C(=O)N[C@@H](CCCCN)C(=O)N[C@@H](Cc4c[nH]c5ccccc45)C(=O)N[C@@H](CCSC)C(=O)N[C@@H](Cc4cccc5ccccc45)C(=O)N[C@@H]([C@@H](C)O)C(=O)N3)NC2=O)C(=O)N[C@@H](CCCCN)C(=O)N[C@@H](CC(C)C)C(=O)N[C@@H](Cc2c[nH]c3ccccc23)C(=O)N1)[C@@H](C)CC)C(N)=O` [compound 281], the IC50 at hNav1.4 [2] was 700 nM and 500 nM; on hNav1.7 [3] it was 32 nM and 47 nM; at hNav1.5 [4], greater than 5 µM; on hNav1.3, 400 nM and 500 nM.

Usually IC50 stands for the concentration at which inhibition is half-maximal.
